Results as given in patent USRE49351E1, “Cytoprotective agent” (Biogen MA Inc., priority 2009, dated 2023).
Marks after values point to notes of the source that are not given here.

Test system: crab-eating monkey cerebral infarction model
Experiment: Crab-eating monkey cerebral infarction model (thrombotic middle cerebral artery occlusion)
Format: in vivo
Details: mean ± S.D.
Protocol: A reducing effect of a cerebral infarction size and an improving effect of a neurological symptom of SMTP-7 in a crab-eating monkey cerebral infarction model were studied according to the following testing method.
SMTP-7 administration group: 10 mg/kg, 2 to 3 year old male crab-eating monkeys, 6 monkeys
Administration method of test substance: The administration volume was set at 10 mL/kg. A Surflo indwelling needle was indwelled in the left saphenous vein, 1 mg/kg (1 mL/kg) was administered 1 hour after ischemia as a bolus over 5 sec, then 9 mg/kg (9 mL/kg) was administered continuously over 30 min using a syringe pump.
Preparation of administration liquid: SMTP-7 was dissolved in a physiological saline solution at 1 mg/mL. More particularly, to 70.0 mg of a SMTP-7 sodium salt (containing 63.1 mg of SMTP-7) was added 63.1 mL of a physiological saline solution, and the liquid was stirred by a magnetic stirrer under heating in a hot-water bath (37° C.) for dissolution. An ultrasonic treatment was conducted according to need. After dissolution the liquid was subjected to filter sterilization by a sterile filter (0.22 μm, made of cellulose acetate). The administration liquid was prepared before using. After the preparation it was kept in a 37° C. hot-water bath until immediately before the use, and the administration was finished within 4 hours after the preparation.
The treatment of cerebral infarction was conducted according to the standard experimental protocol (SPHPR710-15A). More particularly, after extirpating the right eyeball, the eyeground bone outside the optic nerve exit was removed by a dental drill to expose the dura mater. The dura mater was carefully detached to identify the middle cerebral artery. The origin part of the middle cerebral artery was separated from the arachnoid mater and a light irradiation probe for generating a thrombus was fixed on the middle cerebral artery. At the distal end of the probe a probe of a pulse Doppler blood flowmeter (Crystal Bio, PDV-20) was placed. An intravenous administration of rose bengal (Wako Pure Chemical Industries, Ltd.) (20 mg/kg) over 6 min was initiated and an irradiation with green light with the wavelength of 540 nm (1.40 million LUX) was conducted for 20 min to block the middle cerebral artery by a thrombus. The initiation time of the light irradiation and the administration of the rose Bengal was defined as the initiation time of ischemia. The middle cerebral artery blood flow was measured by the pulse Doppler blood flowmeter continuously for 2 hours from the initiation time of the light irradiation and then the incision was closed. A series of procedures were carried out completely under an operating microscope to minimize intraoperative hemorrhage to the utmost. Further, the rectal temperature of an animal under operation was monitored, and the animal was kept warmed by a heating pad, so as to maintain the body temperature of the animal in a physiological range (37.0 to 38.5° C.).
Neurological symptoms as described below were observed 24 hours after ischemia according to J. Neurosci. Meth., 2001; 105: 45-53.
After the neurological symptom observation 24 hours after the operation, a euthanasia treatment was conducted by means of a megadose of pentobarbital and the brain was extirpated. Six mm-thick coronal slices were prepared and photographed for quantitative determination of a hemorrhagic infarction. Thereafter, the infarction area was stained in a 2% TTC solution and photographs were taken for quantitative determination of an infarction size. For evaluations of the hemorrhagic infarction and the infarction area, the occipital lobe side of each slice was used.
Photographs of an individual were converted to TIF images and hemorrhagic infarction areas and the respective infarction areas were marked by Photoshop 7.0 (Adobe), which sizes were then measured by Scion Image 0.4.0.3 (Scion Corporation). […]

[1] = 10 mg/kg i.v. 1 hour after ischemia, 24 hours after ischemia

CC(C)=CCC/C(C)=C/CC[C@@]1(C)Oc2c(c(O)cc3c2CN(CCC[C@@H](C(=O)O)N2Cc4c(cc(O)c5c4O[C@](C)(CC/C=C(\C)CCC=C(C)C)[C@@H](O)C5)C2=O)C3=O)C[C@@H]1O [SMTP-7]
Occlusion Time (0~60 min after ischemia (before administration), 10 mg/kg i.v.): 45.5 ± 3.8 min
Hemorrhagic infarction area size [1]: 14.1 ± 7.4 (P < 0.05) mm^2
cerebral infarction size: Basal ganglion [1]: 1419.7 ± 633.8* mm^3
cerebral infarction size: Cerebral cortex [1]: 237.8 ± 198.8 mm^3
cerebral infarction size: Total [1]: 1745.1 ± 749.5* mm^3
cerebral infarction size: White matter [1]: 87.7 ± 71.8 mm^3
neurological symptom score: Consciousness [1]: 7.7 ± 2.0
neurological symptom score: Motor system [1]: 10.7 ± 2.7
neurological symptom score: Sensory system [1]: 7.5 ± 1.6
neurological symptom score: Skeletal muscle coordination system [1]: 5.3 ± 2.4
neurological symptom score: Total [1]: 31.2 ± 7.9
Total Occlusion Time (10 mg/kg i.v. 1 hour after ischemia, measured for 2 hours, 6 monkeys): 86.8 ± 18.8 min
Time to Occlusion (10 mg/kg i.v. 1 hour after ischemia, middle cerebral artery blood flow, 6 monkeys): 6.9 ± 2.5 min
Occlusion Time (60~120 min after ischemia, 10 mg/kg i.v. 1 hour after ischemia): 41.3 ± 18.9 min
